Test results: ChEMBL document CHEMBL3044576, “Synthesis of promising antimicrobial agents: a novel series of N-(4-(2,6-dichloroquinolin-3-yl)-6-(aryl)pyrimidin-2-yl)-2-morpholinoacetamides” (2013)
≈ marks a conversion by molar mass, not a printed value.

How the values were obtained:
Assay type in all cases: functional
Aspergillus niger = assay: Antifungal activity against Aspergillus niger MTCC 282 after 72 hr by serial broth dilution method; details: MTCC 282, 72 h
Streptococcus pyogenes = assay: Antibacterial activity against Streptococcus pyogenes MTCC 442 after 24 to 48 hr by serial broth dilution method
Candida albicans = assay: Antifungal activity against Candida albicans MTCC 227 after 72 hr by serial broth dilution method; details: MTCC 227, 72 h
Staphylococcus aureus = assay: Antibacterial activity against Staphylococcus aureus MTCC 96 after 24 to 48 hr by serial broth dilution method
Escherichia coli = assay: Antibacterial activity against Escherichia coli MTCC 443 after 24 to 48 hr by serial broth dilution method
Pseudomonas aeruginosa = assay: Antibacterial activity against Pseudomonas aeruginosa MTCC 1688 after 24 to 48 hr by serial broth dilution method
Aspergillus clavatus = assay: Antifungal activity against Aspergillus clavatus MTCC 1323 after 72 hr by serial broth dilution method; details: MTCC 1323, 72 h

Compound	MIC (Aspergillus niger)	MIC (Streptococcus pyogenes)	MIC (Candida albicans)	MIC (Staphylococcus aureus)	MIC (Escherichia coli)	MIC (Pseudomonas aeruginosa)	MIC (Aspergillus clavatus)
O=C(CN1CCOCC1)Nc1nc(-c2ccc(O)cc2)cc(-c2cc3cc(Cl)ccc3nc2Cl)n1	1000 µg/mL (≈ 1960 µM)	1000 µg/mL (≈ 1960 µM)	1000 µg/mL (≈ 1960 µM)	500 µg/mL (≈ 980 µM)	500 µg/mL (≈ 980 µM)	1000 µg/mL (≈ 1960 µM)	1000 µg/mL (≈ 1960 µM)
COc1ccc(-c2cc(-c3cc4cc(Cl)ccc4nc3Cl)nc(NC(=O)CN3CCOCC3)n2)cc1	500 µg/mL (≈ 953 µM)	500 µg/mL (≈ 953 µM)	1000 µg/mL (≈ 1910 µM)	500 µg/mL (≈ 953 µM)	250 µg/mL (≈ 477 µM)	250 µg/mL (≈ 477 µM)	500 µg/mL (≈ 953 µM)
O=C(CN1CCOCC1)Nc1nc(-c2ccc(Cl)cc2)cc(-c2cc3cc(Cl)ccc3nc2Cl)n1	100 µg/mL (≈ 189 µM)	50 µg/mL (≈ 94.5 µM)	100 µg/mL (≈ 189 µM)	250 µg/mL (≈ 473 µM)	100 µg/mL (≈ 189 µM)	25 µg/mL (≈ 47.3 µM)	100 µg/mL (≈ 189 µM)
O=C(CN1CCOCC1)Nc1nc(-c2cccc(F)c2)cc(-c2cc3cc(Cl)ccc3nc2Cl)n1	100 µg/mL (≈ 195 µM)	500 µg/mL (≈ 976 µM)	1000 µg/mL (≈ 1950 µM)	250 µg/mL (≈ 488 µM)	100 µg/mL (≈ 195 µM)	100 µg/mL (≈ 195 µM)	100 µg/mL (≈ 195 µM)
O=C(CN1CCOCC1)Nc1nc(-c2ccc(F)cc2)cc(-c2cc3cc(Cl)ccc3nc2Cl)n1	1000 µg/mL (≈ 1950 µM)	100 µg/mL (≈ 195 µM)	500 µg/mL (≈ 976 µM)	500 µg/mL (≈ 976 µM)	25 µg/mL (≈ 48.8 µM)	250 µg/mL (≈ 488 µM)	12.5 µg/mL (≈ 24.4 µM)
CC1(C)S[C@@H]2[C@H](NC(=O)[C@H](N)c3ccccc3)C(=O)N2[C@H]1C(=O)O [AMPICILLIN]		100 µg/mL (≈ 286 µM)		250 µg/mL (≈ 715 µM)	100 µg/mL (≈ 286 µM)	100 µg/mL (≈ 286 µM)	
COC1=CC(=O)C[C@@H](C)[C@]12Oc1c(Cl)c(OC)cc(OC)c1C2=O [GRISEOFULVIN]	100 µg/mL (≈ 283 µM)		500 µg/mL (≈ 1420 µM)				100 µg/mL (≈ 283 µM)

Now from value to compound:

MIC (Aspergillus niger)	MIC (Streptococcus pyogenes)	MIC (Candida albicans)	MIC (Staphylococcus aureus)	MIC (Escherichia coli)	MIC (Pseudomonas aeruginosa)	MIC (Aspergillus clavatus)	Compound
1000 µg/mL (≈ 2020 µM)	1000 µg/mL (≈ 2020 µM)	1000 µg/mL (≈ 2020 µM)	1000 µg/mL (≈ 2020 µM)	500 µg/mL (≈ 1010 µM)	250 µg/mL (≈ 506 µM)	1000 µg/mL (≈ 2020 µM)	O=C(CN1CCOCC1)Nc1nc(-c2ccccc2)cc(-c2cc3cc(Cl)ccc3nc2Cl)n1
500 µg/mL (≈ 980 µM)	500 µg/mL (≈ 980 µM)	1000 µg/mL (≈ 1960 µM)	500 µg/mL (≈ 980 µM)	500 µg/mL (≈ 980 µM)	250 µg/mL (≈ 490 µM)	500 µg/mL (≈ 980 µM)	O=C(CN1CCOCC1)Nc1nc(-c2ccccc2O)cc(-c2cc3cc(Cl)ccc3nc2Cl)n1
100 µg/mL (≈ 189 µM)	100 µg/mL (≈ 189 µM)	500 µg/mL (≈ 945 µM)	250 µg/mL (≈ 473 µM)	50 µg/mL (≈ 94.5 µM)	250 µg/mL (≈ 473 µM)	25 µg/mL (≈ 47.3 µM)	O=C(CN1CCOCC1)Nc1nc(-c2ccccc2Cl)cc(-c2cc3cc(Cl)ccc3nc2Cl)n1
25 µg/mL (≈ 48.8 µM)	100 µg/mL (≈ 195 µM)	250 µg/mL (≈ 488 µM)	50 µg/mL (≈ 97.6 µM)	50 µg/mL (≈ 97.6 µM)	50 µg/mL (≈ 97.6 µM)	50 µg/mL (≈ 97.6 µM)	O=C(CN1CCOCC1)Nc1nc(-c2ccccc2F)cc(-c2cc3cc(Cl)ccc3nc2Cl)n1
25 µg/mL (≈ 46.3 µM)	12.5 µg/mL (≈ 23.2 µM)	100 µg/mL (≈ 185 µM)	500 µg/mL (≈ 927 µM)	12.5 µg/mL (≈ 23.2 µM)	50 µg/mL (≈ 92.7 µM)	50 µg/mL (≈ 92.7 µM)	O=C(CN1CCOCC1)Nc1nc(-c2ccccc2[N+](=O)[O-])cc(-c2cc3cc(Cl)ccc3nc2Cl)n1
50 µg/mL (≈ 92.7 µM)	100 µg/mL (≈ 185 µM)	500 µg/mL (≈ 927 µM)	50 µg/mL (≈ 92.7 µM)	100 µg/mL (≈ 185 µM)	100 µg/mL (≈ 185 µM)	100 µg/mL (≈ 185 µM)	O=C(CN1CCOCC1)Nc1nc(-c2cccc([N+](=O)[O-])c2)cc(-c2cc3cc(Cl)ccc3nc2Cl)n1
100 µg/mL (≈ 185 µM)	250 µg/mL (≈ 463 µM)	250 µg/mL (≈ 463 µM)	100 µg/mL (≈ 185 µM)	250 µg/mL (≈ 463 µM)	250 µg/mL (≈ 463 µM)	25 µg/mL (≈ 46.3 µM)	O=C(CN1CCOCC1)Nc1nc(-c2ccc([N+](=O)[O-])cc2)cc(-c2cc3cc(Cl)ccc3nc2Cl)n1
